The source of these data is US8604024B2, “Compounds for the reduction of beta-amyloid production” (Bristol-Myers Squibb Company, priority 2011, dated 2013).

Structures can show the parent of a compound that is named as a salt.

One may read the IC50 as the point on the concentration scale where inhibition reaches its midpoint.

The test system of the first assay is Aβ1-42 production in H4 cells stably transfected with APP751 containing the Swedish mutation. Description: Cellular assay for inhibition of Aβ1-42 production (H4 APP751 SWE clone 8.20). It is filed as cell-based. The following applies: 19 h, H4 APP751 SWE clone 8.20 cells, 19 h incubation; read-out: Aβ42 cellular IC50. As to the method:
Cellular Assays for Inhibition of Aβ1-40 and Aβ1-42 Production
H4 cells stably transfected with APP751 containing the Swedish mutation (H4 APP751 SWE clone 8.20, developed at BMS) were maintained in log phase through twice weekly passage at a 1:20 split. […] Following incubation for 19 h in 5% CO2 at 37° C., plates were briefly centrifuged (1000 rpm, 5 min). A 10 μl aliquot from each well was transferred to a second assay plate (Costar 3709) for Aβ40 measurements. Antibody cocktails were freshly prepared by dilution into 40 mM Tris-HCl (pH 7.4) with 0.2% BSA and added to assay plates. For Aβ42 measurements, antibodies specific for the Aβ42 neoepitope (565, developed at BMS; conjugated to the Wallac reagent (Perkin Elmer)) and the N-terminal sequence of Aβ peptide (26D6, developed at SIBIA; conjugated to APC (Perkin Elmer)) were mixed and 20 μl of the mixture was added to each well of the incubated cell plate yielding a final concentration of 0.8 ng/well 565 and 75 ng/well 26D6. For the Aβ40 measurements, antibodies specific for the Aβ40 neoepitope (TSD, developed at BMS; conjugated to the Wallac reagent (Perkin Elmer)) and 26D6 as described above were mixed and 20 μl of the mixture was added to the 10 μl aliquots which had been removed previously from the cell plate yielding a final concentration of 1.6 ng/well TSD and 17.5 ng/well 26D6. Assay plates containing antibodies were sealed with aluminum foil and incubated overnight at 4° C. Signal was determined using a Viewlux counter (Perkin Elmer) and IC50 values determined using curve fitting in CurveMaster (Excel Fit based).
Consider `C[C@]12N=C(N)SC[C@H]1CCOc1ccc(NC(=O)c3ncc(Cl)cc3Cl)cc12` [Example 34a, N-((4aS,11bS)-2-Amino-11b-methyl-4a,5,6,11b-tetrahydro-4H-benzo[2,3]oxepino[4,5-d][1,3]thiazin-10-yl)-3,5-dichloropicolinamide], for which the IC50 came out at 0.0069 µM.
On the same count and under the same terms, as for `C[C@]12N=C(N)SC[C@H]1CCOc1ccc(-c3cncnc3)cc12` (relative stereo) [Example 27, rel-(4aS,11bS)-11b-methyl-10-(pyrimidin-5-yl)-4a,5,6,11b-tetrahydro-4H-benzo[2,3]oxepino[4,5-d][1,3]thiazin-2-amine, bis(2,2,2-trifluoroacetate)], the figure is 2.9 µM.
On the same count and under the same terms, with `C[C@]12N=C(N)SC[C@H]1CCc1ccc(NC(=O)c3ccc(Cl)cn3)cc12` [Example 7b, N-((4aS,10bS)-2-Amino-10b-methyl-4a,5,6,10b-tetrahydro-4H-naphtho[1,2-d][1,3]thiazin-9-yl)-5-chloropicolinamide] the figure was 1.2 µM; with `Cc1ncc(-c2ccc3c(c2)[C@]2(C)N=C(N)SC[C@@H]2CCO3)s1` [Example 26a, (4aR,11bR)-11b-Methyl-10-(2-methylthiazol-5-yl)-4a,5,6,11b-tetrahydro-4H-benzo[2,3]oxepino[4,5-d][1,3]thiazin-2-amine], 4.5 µM; with `NC1=N[C@@H]2c3cc(-c4cncnc4)ccc3CCC[C@@H]2CS1` (relative stereo) [Example 1, rel-(4aS,11bS)-10-Pyrimidin-5-yl-4,4a,5,6,7,11b-hexahydro-3-thia-1-aza-dibenzo[a,c]cyclohepten-2-ylamine, bis(2,2,2-trifluoroacetate)], 5.2 µM.
Still for that read-out and setting: as for `C[C@]12N=C(N)SC[C@H]1CCCc1ccc(-c3cncnc3)cc12` (relative stereo) [Example 2, rel-(4aS,11bS)-11b-Methyl-10-pyrimidin-5-yl-4,4a,5,6,7,11b-hexahydro-3-thia-1-aza-dibenzo[a,c]cyclohepten-2-ylamine, bis(2,2,2-trifluoroacetate)], the figure is 3.4 µM; as for `C[C@]12N=C(N)SC[C@H]1CCOc1ccc(Nc3ncnc4ccccc34)cc12` (relative stereo) [Example 40, rel-(4aS,11bS)-11b-Methyl-N10-(quinazolin-4-yl)-4a,5,6,11b-tetrahydro-4H-benzo[2,3]oxepino[4,5-d][1,3]thiazine-2,10-diamine, bis(2,2,2-trifluoroacetate)], 15 µM.
Take `NC1=N[C@@H]2c3cc(-c4cncnc4)ccc3CCC[C@@H]2CS1` [Example 1a, (4aS,11bS)-10-Pyrimidin-5-yl-4,4a,5,6,7,11b-hexahydro-3-thia-1-aza-dibenzo[a,c]cyclohepten-2-ylamine]: the IC50 was determined as 1.9 µM.
On to `C[C@]12N=C(N)SC[C@H]1COc1cc(F)c(-c3cncnc3)cc12` (relative stereo) [Example 17, rel-(4aR,10bS)-8-Fluoro-10b-methyl-9-(pyrimidin-5-yl)-4,4a,5,10b-tetrahydrochromeno[4,3-d][1,3]thiazin-2-amine, bis(2,2,2-trifluoroacetate)], for which the IC50 came to 3.2 µM.
On the same count and under the same terms, with `C[C@]12N=C(N)SC[C@H]1CCCc1ccc(NC(=O)c3ncc(Cl)cc3Cl)cc12` [Example 45a, N-((4aS,11bS)-2-Amino-11b-methyl-4,4a,5,6,7,11b-hexahydrobenzo[6,7]cyclohepta[1,2-d][1,3]thiazin-10-yl)-3,5-dichloropicolinamide] the figure was 0.0072 µM.
Still for that read-out and setting: with `CC#Cc1cncc(-c2ccc3c(c2)[C@@]2(C)N=C(N)SC[C@H]2CC3)c1` (relative stereo) [Example 21, rel-(4aS,10bS)-10b-methyl-9-(5-(prop-1-yn-1-yl)pyridin-3-yl)-4,5,6,10b-tetrahydro-4H-naphtho[1,2-d][1,3]thiazin-2-amine, bis(2,2,2-trifluoroacetate)] the figure was 1.8 µM; with `C[C@]12N=C(N)SC[C@H]1CCOc1ccc(NC(=O)c3ccc(Cl)cn3)cc12` (relative stereo) [Example 33, rel-N-((4aS,11bS)-2-amino-11b-methyl-4a,5,6,11b-tetrahydro-4H-benzo[2,3]oxepino[4,5-d][1,3]thiazin-10-yl)-5-chloropicolinamide, 2,2,2-trifluoroacetate salt], 0.034 µM.
Still for that read-out and setting: with `C[C@@]12N=C(N)SC[C@@H]1CCCc1ccc(NC(=O)c3ccc(Cl)cn3)cc12` [Example 3b, 5-Chloro-pyridine-2-carboxylic acid ((4aR,11bR)-2-amino-11b-methyl-4,4a,5,6,7,11b-hexahydro-3-thia-1-aza-dibenzo[a,c]cyclohepten-10-yl)-amide] the figure was 6.7 µM.
For `C[C@]12N=C(N)SC[C@H]1CCOc1ccc(NC(=O)c3ccc(Cl)cn3)cc12` [Example 33a, N-((4aS,11bS)-2-amino-11b-methyl-4a,5,6,11b-tetrahydro-4H-benzo[2,3]oxepino[4,5-d][1,3]thiazin-10-yl)-5-chloropicolinamide], the IC50 amounted to 0.035 µM.
On to `C[C@]12N=C(N)SC[C@H]1CCCc1ccc(NC(=O)c3ccc(F)cn3)cc12` [Example 43b, N-((4aS,11bS)-2-Amino-11b-methyl-4,4a,5,6,7,11b-hexahydrobenzo[6,7]cyclohepta[1,2-d][1,3]thiazin-10-yl)-5-fluoropicolinamide], for which the IC50 stood at 0.12 µM.
On the same count and under the same terms, with `C[C@]12N=C(N)SC[C@H]1CCOc1ccc(NC(=O)c3ccc(F)cn3)cc12` (relative stereo) [Example 36, rel-N-((4aS,11bS)-2-Amino-11b-methyl-4a,5,6,11b-tetrahydro-4H-benzo[2,3]oxepino[4,5-d][1,3]thiazin-10-yl)-5-fluoropicolinamide, 2,2,2-trifluoroacetate salt] the figure was 0.085 µM; with `C[C@]12N=C(N)SC[C@H]1COc1cc(F)c(NC(=O)c3ccc(Cl)cn3)cc12` (relative stereo) [Example 18, rel-N-((4aR,10bS)-2-Amino-8-fluoro-10b-methyl-4,4a,5,10b-tetrahydrochromeno[4,3-d][1,3]thiazin-9-yl)-5-chloropicolinamide, 2,2,2-trifluoroacetate], 6.1 µM; with `C[C@]12N=C(N)SC[C@H]1CCOc1ccc(Nc3nccc4ccccc34)cc12` (relative stereo) [Example 41, rel-(4aS,11bS)—N10-(Isoquinolin-1-yl)-11b-methyl-4a,5,6,11b-tetrahydro-4H-benzo[2,3]oxepino[4,5-d][1,3]thiazine-2,10-diamine, bis(2,2,2-trifluoroacetate)], 16 µM.
Regarding `CC#Cc1cncc(-c2ccc3c(c2)[C@@]2(C)N=C(N)SC[C@H]2CCC3)c1` (relative stereo) [Example 15, rel-(4aS,11bS)-11b-Methyl-10-(5-(prop-1-yn-1-yl)pyridin-3-yl)-4,4a,5,6,7,11b-hexahydrobenzo[6,7]cyclohepta[1,2-d][1,3]thiazin-2-amine, bis(2,2,2-trifluoroacetate)], the IC50 came out at 3.6 µM.
Still for that read-out and setting: with `C[C@]12N=C(N)SC[C@H]1CCc1ccc(-c3cncnc3)cc12` (relative stereo) [Example 5, rel-(4aS,10bS)-10b-Methyl-9-(pyrimidin-5-yl)-4a,5,6,10b-tetrahydro-4H-naphtho[1,2-d][1,3]thiazin-2-amine, bis(2,2,2-trifluoroacetate)] the figure was 4.6 µM; with `Cc1cc(-c2ccc3c(c2)[C@@]2(C)N=C(N)SC[C@H]2CC3)n(C)n1` (relative stereo) [Example 20, rel-(4aS,10bS)-9-(1,3-Dimethyl-1H-pyrazol-5-yl)-10b-methyl-4a,5,6,10b-tetrahydro-4H-naphtho[1,2-d][1,3]thiazin-2-amine, bis(2,2,2-trifluoroacetate)], > 30 µM.
For `CC#Cc1cncc(-c2ccc3c(c2)[C@]2(C)N=C(N)SC[C@@H]2CCO3)c1` [Example 22a, (4aR,11bR)-11b-Methyl-10-(5-(prop-1-yn-1-yl)pyridin-3-yl)-4a,5,6,11b-tetrahydro-4H-benzo[2,3]oxepino[4,5-d][1,3]thiazin-2-amine], the IC50 is 8.2 µM.
On the same count and under the same terms, with `COc1ccnc(Nc2ccc3c(c2)[C@@]2(C)N=C(N)SC[C@H]2CCO3)n1` (relative stereo) [Example 42, rel-(4aS,11bS)—N10-(4-Methoxypyrimidin-2-yl)-11b-methyl-4a,5,6,11b-tetrahydro-4H-benzo[2,3]oxepino[4,5-d][1,3]thiazine-2,10-diamine, bis(2,2,2-trifluoroacetate)] the figure was 1.5 µM; with `C[C@]12N=C(N)SC[C@H]1CCc1ccc(Br)cc12` (relative stereo) [Example 10, rel-(4aS,10bS)-9-Bromo-10b-methyl-4a,5,6,10b-tetrahydro-4H-naphtho[1,2-d][1,3]thiazin-2-amine], 13 µM.

The assay is the same for the next values; noted with them: H4 APP751 SWE clone 8.20 cells, 19 h incubation; read-out: Aβ42 cellular IC50.
As to `C[C@]12N=C(N)SC[C@H]1CCOc1ccc(NC(=O)c3ccc(C#N)cn3)cc12` [Example 35b, N-((4aS,11bS)-2-amino-11b-methyl-4a,5,6,11b-tetrahydro-4H-benzo[2,3]oxepino[4,5-d][1,3]thiazin-10-yl)-5-cyanopicolinamide], the IC50 came to 0.0062 µM.
